Measurements published in patent US8633314B2, “Forms of a multicyclic compound” (Cephalon, Inc., priority 2009, dated 2014).

How the values were obtained:
Type in all cases: physicochemical
[1] = Solid state stress stability (storage; XRPD and stability-indicating HPLC); settings: 40° C./75% RH
Method: Typically 10 μL aliquots of the sample solutions were diluted to 1 mL with acetonitrile and the assay concentrations were determined from an average of duplicate injections using the following HPLC method. The purity and impurity analyses are done using conventional HPLC.
Crystallization studies were performed to investigate polymorphism in 48 different solvents. Solvents were selected on the basis of acceptability (ICH Class 3 and 2) and to give a range of dielectric constants, dipole moments and functional groups. Two starting materials were selected: Form A0 and Lot 7 (a mixture of Form A0, Form HC0 and Form HD0). When possible, full characterization was performed on the new forms that were generated during the polymorphism screening of Compound I. This characterization consisted of: XRPD, thermal analysis, DVS, storage at 40° C./75% RH and purity.
Stress stability studies were performed to get a timely impression of the influence of temperature and humidity on form stability. A stability-indicating HPLC assay method was developed for quantitation of Compound I and its major degradation product, 7-methoxy-1,2,3,11-tetrahydro-5,11-diaza-benzo[a]trindene-4,6-dione, previously referred to as “Compound E”.

[2] = Dynamic vapor sorption (DVS)
Method: Gravimetric vapor sorption experiments were carried out using the DVS-HT instrument (Surface Measurement Systems, London, UK). This instrument measures the uptake and loss of vapor gravimetrically using a recording ultra-microbalance with a mass resolution of ±0.1 μg. The vapor partial pressure (±1.0%) around the sample was controlled by mixing saturated and dry carrier gas streams using electronic mass flow controllers. The desired temperature was maintained at ±0.1° C.
The samples (10-25 mg) were placed into the DVS-HT instrument at the desired temperature. Two types of dynamic vapor sorption experiments were performed: • 1. The sample was initially dried in stream of dry air (<0.1% relative humidity (RH)) for 20 hours to establish a dry mass and exposed to two 0-90% RH cycles (in 10% RH increments). • 2. The sample was exposed at 90% RH for 20 hours and exposed to two 90-0% RH cycles (in 10% RH increments). Infrared Spectrometry (FTIR)

[3] = Thermodynamic solubility of monohydrate forms in organic solvents
Method: Experiments were set up to measure the thermodynamic solubility of these monohydrate forms at room temperature and 55° C. in ethyl acetate, MTBE and 1-pentanol.

[4] = Irregular DVS (90 to 0% RH), listed as HD0
[5] = Regular DVS (0 to 90% RH), listed as HD0

## COc1cccc2[nH]c3c4c(c5c(c3c12)C(=O)N(CN1CCN(C)CC1)C5=O)CCC4 [Form HD0, 4,5,6,7-tetrahydro-11-methoxy-2-[(4-methyl-1-piperazinyl)methyl]-1H-cyclopenta[a]pyrrolo[3,4-c]carbazole-1,3(2H)-dione]
[1]; 4 weeks
  Chemical Stability (HPLC (post 4 weeks at 40° C./75% RH (Area %))): 92.3 Area %
[1]; 0 days
  HPLC % Compound I: 93.5% Compound I,
  XRPD (form found): HD0
[1]; 7 days
  HPLC % Compound I: 92.2% Compound I,
  XRPD (form found): HD0
[1]; 13 days
  HPLC % Compound I: 92.3% Compound I,
  XRPD (form found): HD0
[1]; 28 days
  HPLC % Compound I: 92.3% Compound I,
  XRPD (form found): HD0
[2]; Irregular DVS (90 to 0% RH)
  Total uptake at 90% RH: 0.8%
  changes by XRPD re-analysis after DVS: No significant changes
[2]; [4]
  At 75% RH uptake: 0.4%
  Total uptake at 90% RH: 0.8%
[2]; Regular DVS (0 to 90% RH)
  Total uptake at 90% RH: 0.6%
  changes by XRPD re-analysis after DVS: No significant changes
[2]; [5]
  At 75% RH uptake: 0.4%
  Total uptake at 90% RH: 0.6%
[3]; between room temperature and 55° C.
  relative thermodynamic stability in solution: more thermodynamically stable than Form HC0 and form HA0
[3]; ethyl acetate, MTBE, 1-pentanol, RT and 55° C.
  solubility relative to the other hydrated polymorph (Form HC0): always higher
